Read-outs that look alike come from different tables or passages of the source.
Key:
Test in all cases: Kinase binding screen
Conditions in all cases: read-out: Percent Control at 100 nM Compound Concentration
ABL1-nonphosphorylated = ABL1-nonphosphorylated (Homo sapiens (Human), UniProt P00519)
AKT3 = AKT3 (Homo sapiens (Human), UniProt Q9Y243)
CDK4-cyclinD1 = CDK4-cyclinD1 (Homo sapiens (Human), UniProt P11802)
CDK8 = CDK8 (Homo sapiens (Human), UniProt P49336)
CDKL2 = CDKL2 (Homo sapiens (Human), UniProt Q92772)
DAPK1 = DAPK1 (Homo sapiens (Human), UniProt P53355)
EGFR(L861Q) = EGFR(L861Q) (Homo sapiens (Human), UniProt P00533, L861Q)
ERK3 = ERK3 (Homo sapiens (Human), UniProt Q16659)
FAK = FAK (Homo sapiens (Human), UniProt Q05397)
FLT3(D835V) = FLT3(D835V) (Homo sapiens (Human), UniProt P36888, D835V)
FLT3(R834Q) = FLT3(R834Q) (Homo sapiens (Human), UniProt P36888, R834Q)
IKK-epsilon = IKK-epsilon (Homo sapiens (Human), UniProt Q14164)
IRAK3 = IRAK3 (Homo sapiens (Human), UniProt Q9Y616)
LRRK2(G2019S) = LRRK2(G2019S) (Homo sapiens (Human), UniProt Q5S007, G2019S)
MEK6 = MEK6 (Homo sapiens (Human), UniProt P52564)
PAK4 = PAK4 (Homo sapiens (Human), UniProt O96013)
PIK3CA(M10431) = PIK3CA(M10431) (Homo sapiens (Human), UniProt P42336, M1043I)
PIP5K1A = PIP5K1A (Homo sapiens (Human), UniProt Q99755)
RET(V804L) = RET(V804L) (Homo sapiens (Human), UniProt P07949, V804L)
[1] = target: RPS6KA5(Kin.Dom.2-C-terminal) (Homo sapiens (Human), UniProt O75582)
SGK3 = SGK3 (Homo sapiens (Human), UniProt Q96BR1)
STK39 = STK39 (Homo sapiens (Human), UniProt Q9UEW8)
TAK1 = TAK1 (Homo sapiens (Human), UniProt O43318)
TLK2 = TLK2 (Homo sapiens (Human), UniProt Q86UE8)
TSSK1B = TSSK1B (Homo sapiens (Human), UniProt Q9BXA7)
Chain of TSSK1B (Q9BXA7 whole entry): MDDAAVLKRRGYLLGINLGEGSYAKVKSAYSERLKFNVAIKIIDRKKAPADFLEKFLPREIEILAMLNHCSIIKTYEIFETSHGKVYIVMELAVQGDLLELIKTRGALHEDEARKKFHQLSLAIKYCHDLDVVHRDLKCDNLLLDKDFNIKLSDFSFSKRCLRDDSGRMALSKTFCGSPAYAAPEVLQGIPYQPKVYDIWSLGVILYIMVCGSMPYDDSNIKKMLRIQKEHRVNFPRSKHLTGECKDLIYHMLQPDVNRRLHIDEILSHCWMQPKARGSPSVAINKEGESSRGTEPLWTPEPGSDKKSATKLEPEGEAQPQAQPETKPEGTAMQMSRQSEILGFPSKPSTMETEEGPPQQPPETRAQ

Chain of CDK4-cyclinD1 (P11802 whole entry): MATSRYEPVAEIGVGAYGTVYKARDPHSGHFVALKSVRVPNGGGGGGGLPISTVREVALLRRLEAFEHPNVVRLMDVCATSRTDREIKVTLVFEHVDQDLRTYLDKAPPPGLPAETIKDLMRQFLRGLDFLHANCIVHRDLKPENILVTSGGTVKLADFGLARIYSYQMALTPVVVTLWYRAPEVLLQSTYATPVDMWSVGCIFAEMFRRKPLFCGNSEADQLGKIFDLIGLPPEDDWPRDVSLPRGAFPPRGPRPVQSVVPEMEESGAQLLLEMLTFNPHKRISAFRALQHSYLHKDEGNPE
Chain of CDK4-cyclinD1 (P24385 whole entry partner): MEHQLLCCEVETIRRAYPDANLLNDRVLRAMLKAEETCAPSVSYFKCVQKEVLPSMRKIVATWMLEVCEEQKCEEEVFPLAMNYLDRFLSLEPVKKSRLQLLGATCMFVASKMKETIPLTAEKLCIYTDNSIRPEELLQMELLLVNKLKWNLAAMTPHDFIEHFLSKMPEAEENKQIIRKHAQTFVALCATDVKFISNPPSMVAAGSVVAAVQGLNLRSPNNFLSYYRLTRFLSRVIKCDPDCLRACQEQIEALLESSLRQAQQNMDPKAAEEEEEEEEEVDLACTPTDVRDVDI
Chain of TAK1 (O43318 whole entry): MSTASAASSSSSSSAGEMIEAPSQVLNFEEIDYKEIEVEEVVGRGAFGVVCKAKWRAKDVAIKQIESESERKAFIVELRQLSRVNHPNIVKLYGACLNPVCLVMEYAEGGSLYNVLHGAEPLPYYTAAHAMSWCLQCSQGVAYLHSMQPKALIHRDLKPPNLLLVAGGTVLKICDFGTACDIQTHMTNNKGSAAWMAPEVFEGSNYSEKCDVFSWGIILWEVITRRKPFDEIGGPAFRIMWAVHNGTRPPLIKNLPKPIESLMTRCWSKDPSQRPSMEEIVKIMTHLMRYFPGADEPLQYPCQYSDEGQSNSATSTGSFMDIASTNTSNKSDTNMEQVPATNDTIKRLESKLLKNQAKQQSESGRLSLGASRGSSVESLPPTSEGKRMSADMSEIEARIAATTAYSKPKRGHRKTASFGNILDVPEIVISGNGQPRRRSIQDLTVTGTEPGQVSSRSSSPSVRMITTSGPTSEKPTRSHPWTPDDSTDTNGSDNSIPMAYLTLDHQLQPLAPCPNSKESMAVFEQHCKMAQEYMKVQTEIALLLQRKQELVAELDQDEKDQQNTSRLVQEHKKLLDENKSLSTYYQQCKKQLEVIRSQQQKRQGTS
Chain of FAK (Q05397 whole entry): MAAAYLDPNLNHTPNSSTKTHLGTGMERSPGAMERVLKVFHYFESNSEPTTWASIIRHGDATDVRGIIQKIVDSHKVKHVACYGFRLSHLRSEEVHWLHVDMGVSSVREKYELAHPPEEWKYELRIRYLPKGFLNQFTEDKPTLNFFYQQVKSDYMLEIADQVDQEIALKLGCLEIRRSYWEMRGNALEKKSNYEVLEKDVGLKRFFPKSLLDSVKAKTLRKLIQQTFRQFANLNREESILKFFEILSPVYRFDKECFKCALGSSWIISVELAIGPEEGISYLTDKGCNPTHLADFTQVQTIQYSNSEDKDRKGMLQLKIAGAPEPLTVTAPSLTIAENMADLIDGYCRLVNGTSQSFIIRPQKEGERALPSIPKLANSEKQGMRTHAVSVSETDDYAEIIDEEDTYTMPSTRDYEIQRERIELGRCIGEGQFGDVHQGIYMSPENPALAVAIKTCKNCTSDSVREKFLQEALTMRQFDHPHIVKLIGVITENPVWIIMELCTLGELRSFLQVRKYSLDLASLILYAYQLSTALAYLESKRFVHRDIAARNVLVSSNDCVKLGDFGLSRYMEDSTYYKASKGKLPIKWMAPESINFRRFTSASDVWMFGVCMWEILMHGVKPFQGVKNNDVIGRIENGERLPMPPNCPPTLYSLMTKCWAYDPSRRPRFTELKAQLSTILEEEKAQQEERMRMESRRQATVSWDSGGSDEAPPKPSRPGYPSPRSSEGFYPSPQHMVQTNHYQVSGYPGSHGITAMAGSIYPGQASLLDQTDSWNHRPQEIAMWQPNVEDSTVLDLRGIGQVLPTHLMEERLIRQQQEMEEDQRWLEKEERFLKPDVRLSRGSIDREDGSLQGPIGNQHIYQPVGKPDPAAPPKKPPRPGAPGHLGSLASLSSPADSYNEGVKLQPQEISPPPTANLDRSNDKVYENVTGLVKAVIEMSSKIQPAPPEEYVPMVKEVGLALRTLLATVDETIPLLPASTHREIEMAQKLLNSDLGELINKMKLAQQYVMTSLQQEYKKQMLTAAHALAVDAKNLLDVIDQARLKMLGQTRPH
Chain of MEK6 (P52564 whole entry): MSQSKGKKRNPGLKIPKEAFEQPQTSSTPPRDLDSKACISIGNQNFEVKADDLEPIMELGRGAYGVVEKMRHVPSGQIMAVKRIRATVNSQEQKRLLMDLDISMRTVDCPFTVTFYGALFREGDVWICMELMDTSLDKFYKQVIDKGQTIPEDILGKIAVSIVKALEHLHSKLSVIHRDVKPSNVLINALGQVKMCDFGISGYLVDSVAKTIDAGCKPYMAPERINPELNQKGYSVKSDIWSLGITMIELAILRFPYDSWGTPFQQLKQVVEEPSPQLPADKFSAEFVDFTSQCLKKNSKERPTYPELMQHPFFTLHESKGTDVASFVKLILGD
Chain of EGFR(L861Q) (P00533 25-1210 L861Q): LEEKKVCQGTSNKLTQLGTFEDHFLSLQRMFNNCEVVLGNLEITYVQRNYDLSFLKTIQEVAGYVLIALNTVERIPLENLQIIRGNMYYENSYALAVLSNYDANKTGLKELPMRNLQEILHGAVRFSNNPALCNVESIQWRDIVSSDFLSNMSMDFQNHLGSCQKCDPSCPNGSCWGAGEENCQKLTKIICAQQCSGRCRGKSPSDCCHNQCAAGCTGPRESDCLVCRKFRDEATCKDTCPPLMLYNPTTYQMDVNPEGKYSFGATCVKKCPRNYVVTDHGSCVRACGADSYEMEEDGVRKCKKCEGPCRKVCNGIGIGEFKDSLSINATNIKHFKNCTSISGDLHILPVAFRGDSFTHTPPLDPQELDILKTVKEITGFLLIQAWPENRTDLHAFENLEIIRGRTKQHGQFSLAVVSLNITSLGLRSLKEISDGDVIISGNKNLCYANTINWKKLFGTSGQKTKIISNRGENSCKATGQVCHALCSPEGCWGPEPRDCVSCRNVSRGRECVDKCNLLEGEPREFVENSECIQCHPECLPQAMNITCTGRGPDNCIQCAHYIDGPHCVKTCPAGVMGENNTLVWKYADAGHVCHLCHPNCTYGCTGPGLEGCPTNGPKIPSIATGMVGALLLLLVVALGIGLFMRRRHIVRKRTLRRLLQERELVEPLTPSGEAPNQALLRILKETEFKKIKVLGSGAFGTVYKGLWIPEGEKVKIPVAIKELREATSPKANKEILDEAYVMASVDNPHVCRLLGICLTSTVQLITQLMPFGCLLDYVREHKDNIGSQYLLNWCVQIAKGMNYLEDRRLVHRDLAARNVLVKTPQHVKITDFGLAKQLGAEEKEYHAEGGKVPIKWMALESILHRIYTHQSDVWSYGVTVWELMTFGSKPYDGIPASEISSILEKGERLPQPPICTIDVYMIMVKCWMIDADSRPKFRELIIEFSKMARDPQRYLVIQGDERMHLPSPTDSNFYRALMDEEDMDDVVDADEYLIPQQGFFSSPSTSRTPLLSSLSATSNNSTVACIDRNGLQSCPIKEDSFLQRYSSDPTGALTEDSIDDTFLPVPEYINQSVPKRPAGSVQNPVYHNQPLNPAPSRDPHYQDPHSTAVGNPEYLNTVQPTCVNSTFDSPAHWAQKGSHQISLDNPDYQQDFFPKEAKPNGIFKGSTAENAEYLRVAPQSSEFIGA
Chain of PIP5K1A (Q99755 whole entry): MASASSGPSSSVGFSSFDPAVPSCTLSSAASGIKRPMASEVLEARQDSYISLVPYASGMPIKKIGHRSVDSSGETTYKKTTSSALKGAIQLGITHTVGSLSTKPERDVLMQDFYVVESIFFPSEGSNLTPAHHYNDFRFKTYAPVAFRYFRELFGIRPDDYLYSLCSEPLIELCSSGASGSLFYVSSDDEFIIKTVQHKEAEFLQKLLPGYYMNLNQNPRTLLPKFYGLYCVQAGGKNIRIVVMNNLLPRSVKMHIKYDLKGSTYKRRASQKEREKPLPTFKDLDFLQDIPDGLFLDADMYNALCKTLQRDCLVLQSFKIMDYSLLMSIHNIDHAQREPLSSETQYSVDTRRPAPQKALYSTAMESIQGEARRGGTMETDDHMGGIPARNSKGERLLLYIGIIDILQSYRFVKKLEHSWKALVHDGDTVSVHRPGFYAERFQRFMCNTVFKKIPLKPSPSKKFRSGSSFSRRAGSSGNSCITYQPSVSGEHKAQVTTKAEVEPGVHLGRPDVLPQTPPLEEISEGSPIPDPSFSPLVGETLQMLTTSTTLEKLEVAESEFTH
Chain of RPS6KA5(Kin.Dom.2-C-terminal) (O75582 426-687): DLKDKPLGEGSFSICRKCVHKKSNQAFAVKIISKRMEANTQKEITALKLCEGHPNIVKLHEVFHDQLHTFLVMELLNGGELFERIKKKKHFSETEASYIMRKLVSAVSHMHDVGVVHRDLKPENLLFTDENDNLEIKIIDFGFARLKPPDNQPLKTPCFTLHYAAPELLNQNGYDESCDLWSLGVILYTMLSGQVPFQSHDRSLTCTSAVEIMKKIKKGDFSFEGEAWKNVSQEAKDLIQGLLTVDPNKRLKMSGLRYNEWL

`CN(C[C@H](Cc1ccccc1)OP(=O)(O)O)C(=O)c1cncc(C#Cc2cnn(C(F)F)c2)c1` [Example 19, (S)-1-(5-((1-(difluoromethyl)-1H-pyrazol-4-yl)ethynyl)-N-methylnicotinamido)-3-phenylpropan-2-yl dihydrogen phosphate] showed a remaining activity at 0.1 µM (ABL1-nonphosphorylated) of 96%, a remaining activity at 0.1 µM (AKT3) of 100% and a remaining activity at 0.1 µM (CDK4-cyclinD1) of 97%. It also gave a remaining activity at 0.1 µM (CDK8) of 98%, a remaining activity at 0.1 µM (CDKL2) of 95% and a remaining activity at 0.1 µM (DAPK1) of 100%. It also gave a remaining activity at 0.1 µM (EGFR(L861Q)) of 86%, a remaining activity at 0.1 µM (ERK3) of 100% and a remaining activity at 0.1 µM (FAK) of 100%. The remaining activity at 0.1 µM (FLT3(D835V)) was 100%, the remaining activity at 0.1 µM (FLT3(R834Q)) was 100% and the remaining activity at 0.1 µM (IKK-epsilon) was 94%. It also gave a remaining activity at 0.1 µM (IRAK3) of 92%, a remaining activity at 0.1 µM (LRRK2(G2019S)) of 93% and a remaining activity at 0.1 µM (MEK6) of 96%. For the same compound, the remaining activity at 0.1 µM (PAK4) was 98%, the remaining activity at 0.1 µM (PIK3CA(M10431)) was 85% and the remaining activity at 0.1 µM (PIP5K1A) was 92%. For the same compound, the remaining activity at 0.1 µM (RET(V804L)) was 100%, the remaining activity at 0.1 µM [1] was 90% and the remaining activity at 0.1 µM (SGK3) was 100%. The remaining activity at 0.1 µM (STK39) was 100%, the remaining activity at 0.1 µM (TAK1) was 95% and the remaining activity at 0.1 µM (TLK2) was 100%. For the same compound, the remaining activity at 0.1 µM (TSSK1B) was 76%.

`CN(C[C@@H](O)Cc1ccccc1)C(=O)c1cncc(C#Cc2cnn(C(F)F)c2)c1` [Example 2, (S)-5-((1-(difluoromethyl)-1H-pyrazol-4-yl)ethynyl)-N-(2-hydroxy-3-phenylpropyl)-N-methylnicotinamide] gave a remaining activity at 0.1 µM (ABL1-nonphosphorylated; ABL1-nonphosphorylated) of 72%, a remaining activity at 0.1 µM (AKT3; AKT3) of 100% and a remaining activity at 0.1 µM (CDK4-cyclinD1; CDK4-cyclinD1) of 100%. It also gave a remaining activity at 0.1 µM (CDK8; CDK8) of 10%, a remaining activity at 0.1 µM (CDKL2; CDKL2) of 100% and a remaining activity at 0.1 µM (DAPK1; DAPK1) of 100%. The remaining activity at 0.1 µM (EGFR(L861Q); EGFR(L861Q)) was 100%, the remaining activity at 0.1 µM (ERK3; ERK3) was 100% and the remaining activity at 0.1 µM (FAK; FAK) was 100%. It also gave a remaining activity at 0.1 µM (FLT3(D835V); FLT3(D835V)) of 100%, a remaining activity at 0.1 µM (FLT3(R834Q); FLT3(R834Q)) of 100% and a remaining activity at 0.1 µM (IKK-epsilon; IKK-epsilon) of 100%. For the same compound, the remaining activity at 0.1 µM (IRAK3; IRAK3) was 96%, the remaining activity at 0.1 µM (LRRK2(G2019S); LRRK2(G2019S)) was 100% and the remaining activity at 0.1 µM (MEK6; MEK6) was 100%. For the same compound, the remaining activity at 0.1 µM (PAK4; PAK4) was 98%, the remaining activity at 0.1 µM (PIK3CA(M10431); PIK3CA(M10431)) was 92% and the remaining activity at 0.1 µM (PIP5K1A; PIP5K1A) was 100%. The remaining activity at 0.1 µM (RET(V804L); RET(V804L)) was 100%, the remaining activity at 0.1 µM ([1]; RPS6KA5(Kin.Dom.2-C-terminal)) was 95% and the remaining activity at 0.1 µM (SGK3; SGK3) was 100%. It also gave a remaining activity at 0.1 µM (STK39; STK39) of 100%, a remaining activity at 0.1 µM (TAK1; TAK1) of 97% and a remaining activity at 0.1 µM (TLK2; TLK2) of 100%. For the same compound, the remaining activity at 0.1 µM (TSSK1B; TSSK1B) was 88%.
